Our source for the ED50 and Kd values is ChEMBL document CHEMBL5649169 (ChemMedChem, 2018).

The target in one assay is Erlin-2 (Homo sapiens) (UniProt O94905). Also: assay method not described here.
Assay [1] deals with Histone H1.2 (Homo sapiens) (UniProt P16403).
Assay [2] concerns the target Histone-arginine methyltransferase CARM1 (Homo sapiens) (UniProt Q86X55). Also: assay method not described here.
In assay [3] the target is GDP-mannose 4,6 dehydratase (Homo sapiens) (UniProt O60547). Also: assay method not described here.
The target of assay [4] is C-1-tetrahydrofolate synthase, cytoplasmic (Homo sapiens) (UniProt P11586). Also: assay method not described here.
Assay [5] has as its target Dynamin-like GTPase OPA1, mitochondrial (Homo sapiens) (UniProt O60313). Also: assay method not described here.
Assay [6] concerns the target Protein PRRC2C (Homo sapiens) (UniProt Q9Y520). Also: assay method not described here.
Assay [7] has as its target DNA replication licensing factor MCM3 (Homo sapiens) (UniProt P25205). Also: assay method not described here.
The target in a further assay is Ephrin type-A receptor 2 (Homo sapiens, UniProt P29317). Kind of assay: Binding affinity to recombinant human EPHA2 (D596 to G900 residues) expressed in insect cells incubated for 30 mins by MST assay. More on the design: species or system Insect cell.
Assay [8] has as its target E3 ubiquitin-protein ligase listerin (Homo sapiens) (UniProt O94822). Also: assay method not described here.
Assay [9] concerns the target RNA-splicing ligase RtcB homolog (Homo sapiens) (UniProt Q9Y3I0). Also: assay method not described here.
Assay [10] has as its target NAD(P) transhydrogenase, mitochondrial (Homo sapiens) (UniProt Q13423). Also: assay method not described here.
The target of assay [11] is Ubiquitin-protein ligase E3A (Homo sapiens) (UniProt Q05086). Also: assay method not described here.
Assay [12] has as its target Small ribosomal subunit protein mS40 (Homo sapiens) (UniProt Q9Y676). Also: assay method not described here.
Assay [13] addresses Very-long-chain (3R)-3-hydroxyacyl-CoA dehydratase 2 (Homo sapiens) (UniProt Q6Y1H2).
Assay [14] is filed under the species Homo sapiens.
For assay [15], the target named is Small ribosomal subunit protein uS2m (Homo sapiens) (UniProt Q9Y399). Also: assay method not described here.
For assay [16], the target named is Small ribosomal subunit protein uS11 (Homo sapiens) (UniProt P62263). Also: assay method not described here.
Assay [17] addresses Peptidyl-prolyl cis-trans isomerase FKBP3 (Homo sapiens) (UniProt Q00688).
Assay [18] addresses Ragulator complex protein LAMTOR3 (Homo sapiens) (UniProt Q9UHA4).
The species named for assay [19] is Homo sapiens. This is another data set of the same source.
The species named for assay [20] is Homo sapiens. The source holds these as a separate data set.
For assay [21], the target named is Solute carrier family 2, facilitated glucose transporter member 1 (Homo sapiens) (UniProt P11166). Also: assay method not described here.
The target of assay [22] is Cyclin-dependent kinase 2 (Homo sapiens) (UniProt P24941). Also: assay method not described here.
Assay [23] has as its target CCAAT/enhancer-binding protein zeta (Homo sapiens) (UniProt Q03701). Also: assay method not described here.
For assay [24], the target named is Vacuolar protein sorting-associated protein 51 homolog (Homo sapiens) (UniProt Q9UID3). Also: assay method not described here.
For assay [25], the target named is Sec1 family domain-containing protein 1 (Homo sapiens) (UniProt Q8WVM8). Also: assay method not described here.
For assay [26], the target named is Phosphorylated adapter RNA export protein (Homo sapiens) (UniProt Q9H814). Also: assay method not described here.
The target of assay [27] is Large ribosomal subunit protein bL9m (Homo sapiens) (UniProt Q9BYD2). Also: assay method not described here.
In assay [28] the target is Nucleolar MIF4G domain-containing protein 1 (Homo sapiens) (UniProt Q5C9Z4). Also: assay method not described here.
For assay [29], the target named is Origin recognition complex subunit 3 (Homo sapiens) (UniProt Q9UBD5). Also: assay method not described here.
Assay [30] addresses c-Myc-binding protein (Homo sapiens) (UniProt Q99417).
For assay [31], the target named is Lanosterol synthase (Homo sapiens) (UniProt P48449). Also: assay method not described here.
Lanosterol synthase (Homo sapiens), sequence (P48449 whole entry): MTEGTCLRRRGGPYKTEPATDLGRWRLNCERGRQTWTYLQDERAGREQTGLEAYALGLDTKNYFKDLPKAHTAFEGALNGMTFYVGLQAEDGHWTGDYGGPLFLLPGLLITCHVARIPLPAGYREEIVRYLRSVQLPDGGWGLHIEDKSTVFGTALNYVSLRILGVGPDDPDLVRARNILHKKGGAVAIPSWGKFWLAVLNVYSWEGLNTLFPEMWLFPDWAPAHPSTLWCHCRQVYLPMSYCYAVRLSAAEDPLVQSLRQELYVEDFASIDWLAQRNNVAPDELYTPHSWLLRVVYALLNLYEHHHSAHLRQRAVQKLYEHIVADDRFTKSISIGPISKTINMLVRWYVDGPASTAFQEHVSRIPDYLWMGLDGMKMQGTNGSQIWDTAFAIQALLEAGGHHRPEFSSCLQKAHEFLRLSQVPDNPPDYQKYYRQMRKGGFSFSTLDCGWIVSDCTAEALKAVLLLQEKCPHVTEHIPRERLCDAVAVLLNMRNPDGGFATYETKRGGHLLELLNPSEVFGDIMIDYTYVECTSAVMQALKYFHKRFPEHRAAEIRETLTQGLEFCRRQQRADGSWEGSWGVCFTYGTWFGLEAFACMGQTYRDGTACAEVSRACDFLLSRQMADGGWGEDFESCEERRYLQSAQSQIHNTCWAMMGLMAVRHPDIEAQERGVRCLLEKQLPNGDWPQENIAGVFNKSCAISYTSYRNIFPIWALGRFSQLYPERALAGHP
The species named for assay [32] is Homo sapiens. This is another data set of the same source.
Assay [33] deals with Small ribosomal subunit protein uS2 (Homo sapiens) (UniProt P08865).
For assay [34], the target named is Centrosome and spindle pole-associated protein 1 (Homo sapiens) (UniProt Q1MSJ5). Also: assay method not described here.
For assay [35], the target named is Large ribosomal subunit protein bL21m (Homo sapiens) (UniProt Q7Z2W9). Also: assay method not described here.
In assay [36] the target is Kinesin-like protein KIF2C (Homo sapiens) (UniProt Q99661). Also: assay method not described here.
The target in assay [37] is OCIA domain-containing protein 1 (Homo sapiens) (UniProt Q9NX40). Also: assay method not described here.
The target in assay [38] is Small ribosomal subunit protein eS1 (Homo sapiens) (UniProt P61247). Also: assay method not described here.
For assay [39], the species on record is Homo sapiens. The source holds these as a separate data set.
In assay [40] the target is ATP synthase F(0) complex subunit 8 (Homo sapiens) (UniProt P03928). Also: assay method not described here.
In assay [41] the target is Conserved oligomeric Golgi complex subunit 2 (Homo sapiens) (UniProt Q14746). Also: assay method not described here.
Conserved oligomeric Golgi complex subunit 2 (Homo sapiens), sequence (Q14746 whole entry, one chain of several): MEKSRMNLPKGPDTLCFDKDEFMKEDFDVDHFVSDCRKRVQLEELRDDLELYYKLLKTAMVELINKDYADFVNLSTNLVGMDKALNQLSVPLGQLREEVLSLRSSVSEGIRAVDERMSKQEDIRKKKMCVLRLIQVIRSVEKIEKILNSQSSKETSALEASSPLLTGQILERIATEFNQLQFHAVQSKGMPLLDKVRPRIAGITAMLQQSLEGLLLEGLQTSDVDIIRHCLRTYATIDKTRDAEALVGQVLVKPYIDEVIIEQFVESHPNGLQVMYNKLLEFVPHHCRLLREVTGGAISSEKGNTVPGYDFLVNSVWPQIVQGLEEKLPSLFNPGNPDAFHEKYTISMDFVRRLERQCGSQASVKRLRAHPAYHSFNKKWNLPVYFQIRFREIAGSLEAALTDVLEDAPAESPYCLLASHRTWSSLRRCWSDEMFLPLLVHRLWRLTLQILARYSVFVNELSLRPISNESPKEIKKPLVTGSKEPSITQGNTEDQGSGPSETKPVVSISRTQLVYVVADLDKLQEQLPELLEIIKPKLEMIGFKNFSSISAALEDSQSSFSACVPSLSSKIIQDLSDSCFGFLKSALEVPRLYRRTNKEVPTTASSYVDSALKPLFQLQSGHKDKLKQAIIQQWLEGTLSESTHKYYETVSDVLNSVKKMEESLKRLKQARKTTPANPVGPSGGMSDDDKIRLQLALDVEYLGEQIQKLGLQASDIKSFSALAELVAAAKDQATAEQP
In assay [42] the target is Rapamycin-insensitive companion of mTOR (Homo sapiens) (UniProt Q6R327). Also: assay method not described here.
For assay [43], the target named is Oxysterol-binding protein-related protein 3 (Homo sapiens) (UniProt Q9H4L5). Also: assay method not described here.
Assay [44] has as its target Tubulin beta-4A chain (Homo sapiens) (UniProt P04350). Also: assay method not described here.
For assay [45], the target named is Large subunit GTPase 1 homolog (Homo sapiens) (UniProt Q9H089). Also: assay method not described here.

The structures appear in SMILES notation.
For ED50 in this document: assay method not described here.

Protein PRRC2C (Homo sapiens), sequence (Q9Y520 whole entry): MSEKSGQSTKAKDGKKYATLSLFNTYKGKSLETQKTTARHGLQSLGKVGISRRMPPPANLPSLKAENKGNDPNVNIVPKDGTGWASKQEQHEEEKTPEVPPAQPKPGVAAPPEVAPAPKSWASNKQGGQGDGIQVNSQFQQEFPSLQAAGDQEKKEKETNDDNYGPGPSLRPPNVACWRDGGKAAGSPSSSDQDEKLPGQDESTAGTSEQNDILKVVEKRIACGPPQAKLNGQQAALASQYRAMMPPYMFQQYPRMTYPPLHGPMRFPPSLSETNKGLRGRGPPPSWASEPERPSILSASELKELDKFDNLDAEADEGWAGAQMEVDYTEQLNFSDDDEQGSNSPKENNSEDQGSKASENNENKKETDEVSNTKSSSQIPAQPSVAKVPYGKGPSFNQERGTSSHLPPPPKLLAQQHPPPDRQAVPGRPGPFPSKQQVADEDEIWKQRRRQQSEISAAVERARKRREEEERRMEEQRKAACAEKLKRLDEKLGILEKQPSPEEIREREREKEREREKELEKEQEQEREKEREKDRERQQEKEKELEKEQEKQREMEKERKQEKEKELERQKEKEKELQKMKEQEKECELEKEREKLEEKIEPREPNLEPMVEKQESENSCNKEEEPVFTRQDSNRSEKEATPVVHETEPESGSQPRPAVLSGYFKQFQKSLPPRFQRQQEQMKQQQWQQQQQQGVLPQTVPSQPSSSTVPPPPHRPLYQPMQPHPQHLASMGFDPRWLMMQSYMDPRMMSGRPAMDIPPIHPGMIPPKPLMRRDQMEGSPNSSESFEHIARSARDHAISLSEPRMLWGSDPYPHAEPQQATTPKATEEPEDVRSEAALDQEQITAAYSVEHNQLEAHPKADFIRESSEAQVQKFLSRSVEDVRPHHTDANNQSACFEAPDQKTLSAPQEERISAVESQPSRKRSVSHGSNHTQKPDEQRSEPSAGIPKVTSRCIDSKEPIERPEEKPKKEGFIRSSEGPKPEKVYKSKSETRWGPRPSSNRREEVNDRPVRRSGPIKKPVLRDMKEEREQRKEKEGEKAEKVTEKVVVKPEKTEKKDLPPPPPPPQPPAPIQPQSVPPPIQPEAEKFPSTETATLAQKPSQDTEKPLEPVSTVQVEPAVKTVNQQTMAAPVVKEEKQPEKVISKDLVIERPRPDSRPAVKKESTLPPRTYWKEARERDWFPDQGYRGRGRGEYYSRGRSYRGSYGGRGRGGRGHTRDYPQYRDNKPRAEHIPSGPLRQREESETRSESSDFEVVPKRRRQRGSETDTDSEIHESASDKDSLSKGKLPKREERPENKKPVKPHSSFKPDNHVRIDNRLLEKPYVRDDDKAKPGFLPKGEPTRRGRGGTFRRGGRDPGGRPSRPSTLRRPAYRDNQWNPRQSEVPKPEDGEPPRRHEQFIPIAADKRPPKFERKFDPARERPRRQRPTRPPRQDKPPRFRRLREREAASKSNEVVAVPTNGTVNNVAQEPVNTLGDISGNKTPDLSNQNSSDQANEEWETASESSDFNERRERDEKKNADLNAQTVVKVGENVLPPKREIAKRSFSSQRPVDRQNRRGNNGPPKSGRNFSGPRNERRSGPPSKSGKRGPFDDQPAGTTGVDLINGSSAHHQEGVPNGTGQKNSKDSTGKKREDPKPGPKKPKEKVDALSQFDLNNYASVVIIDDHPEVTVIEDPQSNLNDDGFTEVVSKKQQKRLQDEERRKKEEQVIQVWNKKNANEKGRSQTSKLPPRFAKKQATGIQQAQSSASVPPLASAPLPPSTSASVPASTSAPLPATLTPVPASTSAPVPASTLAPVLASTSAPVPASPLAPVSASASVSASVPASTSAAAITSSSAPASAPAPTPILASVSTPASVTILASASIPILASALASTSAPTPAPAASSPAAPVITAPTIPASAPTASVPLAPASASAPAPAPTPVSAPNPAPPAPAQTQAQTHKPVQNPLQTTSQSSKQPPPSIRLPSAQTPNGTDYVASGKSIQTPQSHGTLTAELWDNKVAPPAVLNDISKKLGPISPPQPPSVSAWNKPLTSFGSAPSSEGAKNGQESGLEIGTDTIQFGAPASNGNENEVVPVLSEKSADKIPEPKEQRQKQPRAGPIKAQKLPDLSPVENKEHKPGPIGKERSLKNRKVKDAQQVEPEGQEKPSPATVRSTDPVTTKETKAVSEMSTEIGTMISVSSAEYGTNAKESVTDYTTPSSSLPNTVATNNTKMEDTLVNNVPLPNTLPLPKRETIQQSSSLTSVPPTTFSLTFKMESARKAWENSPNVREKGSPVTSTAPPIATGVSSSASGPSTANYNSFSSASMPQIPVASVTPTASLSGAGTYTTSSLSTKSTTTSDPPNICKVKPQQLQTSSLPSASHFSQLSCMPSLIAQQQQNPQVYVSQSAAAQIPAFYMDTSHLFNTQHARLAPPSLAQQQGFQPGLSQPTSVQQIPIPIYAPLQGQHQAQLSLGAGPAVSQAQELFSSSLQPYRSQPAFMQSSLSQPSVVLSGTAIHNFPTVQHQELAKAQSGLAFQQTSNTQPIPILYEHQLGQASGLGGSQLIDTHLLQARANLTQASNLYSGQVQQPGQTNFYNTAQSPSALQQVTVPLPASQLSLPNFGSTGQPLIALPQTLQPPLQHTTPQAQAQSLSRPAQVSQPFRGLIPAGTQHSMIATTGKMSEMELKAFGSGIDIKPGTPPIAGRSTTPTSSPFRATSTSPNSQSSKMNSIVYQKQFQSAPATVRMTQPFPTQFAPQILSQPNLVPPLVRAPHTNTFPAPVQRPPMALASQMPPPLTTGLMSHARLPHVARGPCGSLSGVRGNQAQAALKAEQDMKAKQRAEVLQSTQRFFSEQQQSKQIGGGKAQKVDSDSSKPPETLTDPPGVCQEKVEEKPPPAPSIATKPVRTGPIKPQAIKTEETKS
Histone-arginine methyltransferase CARM1 (Homo sapiens), sequence (Q86X55 whole entry): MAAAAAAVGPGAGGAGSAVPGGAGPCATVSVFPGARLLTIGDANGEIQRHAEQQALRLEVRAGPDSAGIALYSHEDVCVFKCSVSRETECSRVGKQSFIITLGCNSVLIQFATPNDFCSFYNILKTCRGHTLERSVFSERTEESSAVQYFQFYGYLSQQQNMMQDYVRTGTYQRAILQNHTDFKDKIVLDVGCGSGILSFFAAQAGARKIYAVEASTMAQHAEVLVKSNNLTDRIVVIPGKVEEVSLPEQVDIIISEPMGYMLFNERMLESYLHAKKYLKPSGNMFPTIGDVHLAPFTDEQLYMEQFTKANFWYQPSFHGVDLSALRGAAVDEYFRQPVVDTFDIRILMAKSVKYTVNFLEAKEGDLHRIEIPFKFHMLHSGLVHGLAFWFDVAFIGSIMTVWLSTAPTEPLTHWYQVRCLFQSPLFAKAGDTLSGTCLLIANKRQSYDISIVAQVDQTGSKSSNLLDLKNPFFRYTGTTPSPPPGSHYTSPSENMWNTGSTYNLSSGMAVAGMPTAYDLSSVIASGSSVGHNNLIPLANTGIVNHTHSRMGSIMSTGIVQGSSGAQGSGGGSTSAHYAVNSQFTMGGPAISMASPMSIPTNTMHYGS
c-Myc-binding protein (Homo sapiens), sequence (Q99417 whole entry): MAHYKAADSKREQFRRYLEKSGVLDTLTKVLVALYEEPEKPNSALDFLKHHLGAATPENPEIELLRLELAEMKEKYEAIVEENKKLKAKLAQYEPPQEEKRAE

Consider `Cc1ccc(C(=O)Nc2cccc(C(F)(F)F)c2)cc1Nc1nc(-c2cccnc2)nc2nn(C)cc12`, for which the ED50 on Erlin-2 (Homo sapiens) came out at 3.06 µM; in [1] it was 0.00894 µM; in assay [2] it was 0.113 µM; in assay [3] it was 6770 µM; in assay [4], 0.0871 µM; in assay [5] it was 0.0729 µM. Besides, the ED50 in assay [6] is 2.52 µM; in assay [7], 0.0289 µM; in assay [8], 0.753 µM; in [9], 0.0383 µM; in assay [10], 0.00568 µM. For the same compound, the Kd on Ephrin type-A receptor 2 was 0.073 µM.

`Cc1ccc(C(=O)Nc2cccc(C(F)(F)F)c2)cc1Nc1nc(-c2cccnc2)nc2c1cnn2C`: the ED50 came out at 6.96 µM in assay [11]; 15.6 µM in assay [12]; 23.7 µM in [13]; 0.00171 µM in the assay filed under Homo sapiens [14]; 4.88 µM in [15]; 5.3 µM in [16]. Besides, the ED50 is 12 µM in [17]; 0.816 µM in assay [18]; 11.8 µM in the assay listed under Homo sapiens [19]; 5.36 µM in the assay filed under Homo sapiens [20]; 1.85 µM in [21]; 0.0475 µM in assay [22]. Further, the ED50 in assay [23] came to 3.24 µM; in assay [24], 5.2 µM; in [25], 0.171 µM; in [26] it was 3.51 µM; in assay [27], 9.58 µM; in assay [28], 0.00322 µM. For the same compound, the ED50 in assay [29] was 22.9 µM; in assay [30], 249 µM; in assay [31] it was 112 µM; in the assay filed under Homo sapiens [32], 3.23 µM; in assay [33], 1.96 µM; in [34], 1.41 µM. For the same compound, the ED50 in [35] was determined as 5.95 µM; in assay [36], 0.02 µM; in assay [37], 0.00604 µM; in assay [38], 2.45 µM; in the assay listed under Homo sapiens [39], 0.059 µM; in assay [40] it was 45.6 µM. The ED50 in assay [41] stood at 3.45 µM; in assay [42], 10.1 µM; in assay [43] it was 0.946 µM; in assay [44] it was 0.00634 µM; in assay [45], 0.000521 µM.
